From EP0251126B1, “1,7-substituted heptyne-2-ones” (priority 1986, dated 1988)

Tests used:
[1] = target: postsynaptic muscarinic cholinergic receptors on intestinal (ileal) longitudinal smooth muscle (Cavia porcellus, UniProt Q8VH26); type: biochemical, guinea-pigs; details: guinea pig ileum longitudinal muscle, carbachol as agonist
Experimental: The cavity is opened and the small intestine is removed, with about 10 cm of the terminal ileum being discarded. […] The segments are preferentially taken from the aboral end of the ileum.
The preparations are allowed to recover for an additional 12 minutes before being used in experiments.
(§1) Serial dilutions (1:10) in saline or water are made from the stock solution.
(§2) Serial dilutions (1:10) in saline or water are made from the stock solution. […] Serial dilutions (1:10) in water are made from the stock solution. Other solvents may be used when appropriate and will be specifically described in the experimental procedure. Appropriate volumes are then added to the baths in order to obtain the desired bath concentrations.
(§3) With each concentration step, the tissue contracts isometrically. The next concentration is added only after the preceding contraction has reached a steady value.
Three or four different concentrations of antagonist are studied in the same preparations. Responses are expressed relative to the maximum contraction elicited by carbachol in the absence of antagonist.

[2] = target: postsynaptic muscarinic cholinergic receptors on bladder detrusor muscle (Cavia porcellus, UniProt Q8VH26); type: biochemical, guinea-pigs; details: guinea pig bladder strips, carbachol as agonist
postsynaptic muscarinic cholinergic receptors on bladder detrusor muscle, sequence (Q8VH26 entry or part of it): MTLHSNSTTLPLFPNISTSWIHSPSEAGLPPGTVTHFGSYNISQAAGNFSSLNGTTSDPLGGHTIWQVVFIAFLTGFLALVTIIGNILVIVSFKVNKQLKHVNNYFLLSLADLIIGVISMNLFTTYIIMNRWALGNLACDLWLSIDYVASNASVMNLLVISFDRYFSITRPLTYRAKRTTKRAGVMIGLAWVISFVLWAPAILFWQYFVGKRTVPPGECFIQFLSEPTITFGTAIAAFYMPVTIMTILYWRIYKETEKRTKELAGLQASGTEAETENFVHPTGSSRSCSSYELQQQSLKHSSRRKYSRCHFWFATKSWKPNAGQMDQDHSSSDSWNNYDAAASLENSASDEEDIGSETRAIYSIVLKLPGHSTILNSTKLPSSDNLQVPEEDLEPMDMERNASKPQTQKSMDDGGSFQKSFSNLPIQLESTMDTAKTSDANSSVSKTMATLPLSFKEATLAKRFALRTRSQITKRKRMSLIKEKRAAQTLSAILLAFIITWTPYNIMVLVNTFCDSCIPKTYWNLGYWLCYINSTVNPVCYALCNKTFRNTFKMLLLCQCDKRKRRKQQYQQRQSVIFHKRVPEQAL
Experimental: as §1, §2, §3
Three or four different concentrations of antagonist are studied in the same preparations.

[3] = tested on: bladder contraction strength (PvesP); type: in vivo, Guinea pigs; details: T-1/2 of the compound compared with T-1/2 of oxybutynin
Excerpt: To assess test compounds with a more intact model system, a method which more closely mimics the natural slow filling of the bladder is used.
This clinical CMG is produced by catheterizing the bladder so it may be filled, emptied and refilled with fluid while simultaneously measuring the internal bladder pressure (Pves). […] This allows the bladder to reach maximum capacity/pressure before sensory systems initiate the normal urge and micturition reflex patterns. We use a modification of this clinical test to determine duration of action of test compounds by repeated filling of the bladder following i.v. administration of the test compound. Peak pressure above the threshold pressure is the primary measure of action which can be inhibited by the test compounds and can be used to determine potency and duration of action in this anesthetized Guinea pig model. […]
Test drugs and reference compounds are normally prepared as a solution in normal saline, acidified or made basic as needed to get the compound into solution at the desired concentration. Drugs are delivered at selected mg/kg (calculated as free base) doses i.v. in a volume of approximately 0.5 to 0.8 ml. […]

postsynaptic muscarinic cholinergic receptors on intestinal (ileal) longitudinal smooth muscle, sequence (Q8VH26 entry or part of it): as above

Compound | Ileum Kb [1] | Bladder Kb [2] | half-lives of PvesP depression relative to oxybutynin [3] | also measured
CCN(CC)CC#CCCC(=O)C(C)(O)c1ccccc1.O=C(O)C(=O)O (centres unmarked) [Compound 7, 2-Hydroxy-2-phenyl-8-(N,N-diethylamino)oct-6-yn-3-one oxalate] | NC 10µM |  |  | 
CCN(CC)CC#CCCC1(C(O)(c2ccccc2)C2CCCCC2)SCCCS1 (centres unmarked) [Compound 2, 1-Cyclohexyl-1-phenyl-1-hydroxy-7-diethylaminohept-5-yn-2-one bis (1,3-propylene)dithioketal hemioxalate] |  | enhance |  | 
CCNCC#CCCC(=O)C(O)(c1ccccc1)C1CCCCC1 (centres unmarked) [Compound 10, 1-Cyclohexyl-1-hydroxy-phenyl-7-ethylamino-hept-5-yn-2-one hemifumarate, hydrate] |  |  | 1.78 times longer | 
CN(C)CC#CCCC(=O)C(O)(c1ccccc1)C1CCCCC1 (centres unmarked) [Compound 18, 1-Cyclohexyl-1-hydroxy-1-phenyl-7-dimethylaminohept-5-yn-2-one] |  |  | 2.65 times longer | 
CCN(CC)CC#CCC(=O)CC1(O)CCc2ccccc21.CCN(CC)CC#CCC(=O)CC1(O)CCc2ccccc21.O.O=C(O)C(=O)O.O=C(O)C(=O)O (centres unmarked) [Compound 21, 1-(6-N,N-Diethylaminohex-4-yn-2-one)-1-hydroxyindan oxalate semihydrate] | N.E. | N.E. |  | 
1-(6-Diethylaminohex-4-yn-2-one)-1-hydroxy-1,2,3,4-tetrahydronaphthalene N-cyclohexylsulfamate hydrate [Compound 11] |  |  |  | Kb [2]: 512 nM; Kb [1]: > 1000 nM
